Assay results: patent publication US6924266B2, “NTP-peptides and method for removal of tumors” (Nymox Corporation, priority 2001, dated 2005)

Test system: muscle tissue, subcutaneous connective tissue, and dermis
Assay: Effect on tissue at sites of injection in normal rats, histopathology at 24 hours
Format: in vivo
Conditions: for effect on tissue at sites of injection (histopathology): injected in skin, subcutaneously and in extremity skeletal muscle, in saline, 100 to 400 mL at 0.1-1 mg/mL, sacrificed at 24 hours; for muscle changes at injection sites compared with controls: extremity skeletal muscle injection; for muscle changes at injection sites compared with controls / spread of necrosis / cell death beyond the site of injection: 24 hours; for spread of necrosis / cell death beyond the site of injection: local injection
Experimental: (§1) Eight normal rats were injected in the skin and subcutaneously, each in four different foci, and in extremity skeletal muscle, each in two different foci, with NTP peptide #43 in saline in quantities of […] at concentrations of 0.1-1 mg/mL delivered from plastic syringes through stainless steel 26 gauge needles.
The 48 individual foci of infiltration were excised, fixed in 10% formalin, embedded in paraffin, and stained and examined by standard histopathological methods.
Similar groups of control rats were injected with (1) bovine serum albumin 0.1% in saline, (2) normal human serum, (3) physiological saline, (4) noninfectious bacterial proteins, and (5) control peptides and purified and then examined and sacrificed as above, with the excised foci of injection treated as above.
as §1, with “#17” for “#43”
The controls were the same as Example 1.
as §1, with “#20” for “#43”
as §1, with “#19” for “#43”
as §1, with “#16” for “#43”
as §1, with “#15” for “#43”
as §1, with “#14” for “#43”

Row | Sequence | effect on tissue at sites of injection (histopathology) | muscle changes at injection sites compared with controls | spread of necrosis / cell death beyond the site of injection
1 | KCWDYRRAAVPGLFILFFL (listed as Homo sapiens) [NTP peptide #15] | cell death and necrosis of tissue at the injection sites |  | 
2 | KCWDYRRAAVPGLFILFFLRHRCPTLTQDEVQWCDHSS (listed as Homo sapiens) [NTP peptide #17] | abundant acute necrosis of tissue at the injection sites | entire fields of muscle fiber layers were necrotic | did not appear to spread far beyond the site of injection
3 | FILFFLRHRCPTL (listed as Homo sapiens) [NTP peptide #19] | cell death and necrosis of tissue at the injection sites |  | 
4 | KCWDYRRAAVPGL (listed as Homo sapiens) [NTP peptide #14] | cell death and necrosis of tissue at the injection sites |  | 
5 | FILFFLRHRCPTLTQDEVQWCDHSS (listed as Homo sapiens) [NTP peptide #20] | cell death and necrosis of tissue at the injection sites | entire fields of muscle fiber layers were necrotic | did not appear to spread far beyond the site of injection
6 | KCWDYRRAAVPGLFILFFLRHRCP (listed as Homo sapiens) [NTP peptide #16] | cell death and necrosis of tissue at the injection sites |  | 
